In the supplement of paper PMC10307832:

What was measured:
Test in all cases: relative viability (nuclei count vs DMSO), 5 days (fraction); higher = more cells survive
LC-2-ad = system: LC-2-ad
Summary of the method: (§1)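 One day after seeding in 1536-well plates, lung cancer cell lines were dosed by pin tool. Dosing was either single-drug or a fixed anchor-drug dose plus five library-drug doses (not always all listed) in √10 steps. After 5 days, nuclei were stained in one fix-and-stain step and counted on 4× images, and relative viability is the nuclei count of treated wells over that of vehicle wells, given as the median of duplicate plates.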

NCI-H1792 = system: NCI-H1792
Summary of the method: as §1

NCI-H1975 = system: NCI-H1975
Summary of the method: as §1

LXF-289 = system: LXF-289
Summary of the method: as §1

NCI-H2126 = system: NCI-H2126
Summary of the method: as §1

NCI-H358 = system: NCI-H358
Summary of the method: as §1

NCI-H460 = system: NCI-H460
Summary of the method: as §1

HCC-15 = system: HCC-15
Summary of the method: as §1

RERF-LC-KJ = system: RERF-LC-KJ
Summary of the method: as §1

NCI-H2342 = system: NCI-H2342
Summary of the method: as §1

NCI-H647 = system: NCI-H647
Summary of the method: as §1

SK-LU-1 = system: SK-LU-1
Summary of the method: as §1

## CC1(C)CCC(c2ccc(Cl)cc2)=C(CN2CCN(c3ccc(C(=O)NS(=O)(=O)c4ccc(N[C@H](CCN5CCOCC5)CSc5ccccc5)c(S(=O)(=O)C(F)(F)F)c4)cc3)CC2)C1 [Navitoclax] + N=C(N)NC(=N)NCCc1ccccc1 [Phenformin] (partner 250 µM)
LC-2-ad; first compound 0.1581 µM
  relative viability: 0.505
LC-2-ad; first compound 0.5 µM
  relative viability: 0.572
NCI-H1792; first compound 0.005 µM
  relative viability: 0.258
NCI-H1792; first compound 0.01581 µM
  relative viability: 0.179
NCI-H1792; first compound 0.5 µM
  relative viability: 0.112
NCI-H1975; first compound 0.005 µM
  relative viability: 0.427
NCI-H1975; first compound 0.01581 µM
  relative viability: 0.428
NCI-H1975; first compound 0.05 µM
  relative viability: 0.454
NCI-H1975; first compound 0.1581 µM
  relative viability: 0.414
NCI-H1975; first compound 0.5 µM
  relative viability: 0.42
LXF-289; first compound 0.005 µM
  relative viability: 0.524
LXF-289; first compound 0.01581 µM
  relative viability: 0.531
LXF-289; first compound 0.05 µM
  relative viability: 0.498
LXF-289; first compound 0.1581 µM
  relative viability: 0.506
LXF-289; first compound 0.5 µM
  relative viability: 0.5
NCI-H2126; first compound 0.005 µM
  relative viability: 0.527
NCI-H2126; first compound 0.01581 µM
  relative viability: 0.53
NCI-H2126; first compound 0.05 µM
  relative viability: 0.45
NCI-H2126; first compound 0.1581 µM
  relative viability: 0.42
NCI-H2126; first compound 0.5 µM
  relative viability: 0.444
NCI-H358; first compound 0.005 µM
  relative viability: 0.362
NCI-H358; first compound 0.01581 µM
  relative viability: 0.376
NCI-H358; first compound 0.05 µM
  relative viability: 0.357
NCI-H358; first compound 0.1581 µM
  relative viability: 0.343
NCI-H358; first compound 0.5 µM
  relative viability: 0.424
NCI-H460; first compound 0.005 µM
  relative viability: 0.509
NCI-H460; first compound 0.01581 µM
  relative viability: 0.512
NCI-H460; first compound 0.05 µM
  relative viability: 0.529
NCI-H460; first compound 0.1581 µM
  relative viability: 0.522
NCI-H460; first compound 0.5 µM
  relative viability: 0.515
HCC-15; first compound 0.005 µM
  relative viability: 0.453
HCC-15; first compound 0.01581 µM
  relative viability: 0.488
HCC-15; first compound 0.05 µM
  relative viability: 0.406
HCC-15; first compound 0.1581 µM
  relative viability: 0.483
HCC-15; first compound 0.5 µM
  relative viability: 0.422
RERF-LC-KJ; first compound 0.005 µM
  relative viability: 0.41
RERF-LC-KJ; first compound 0.01581 µM
  relative viability: 0.353
RERF-LC-KJ; first compound 0.05 µM
  relative viability: 0.428
RERF-LC-KJ; first compound 0.1581 µM
  relative viability: 0.381
RERF-LC-KJ; first compound 0.5 µM
  relative viability: 0.437
NCI-H2342; first compound 0.005 µM
  relative viability: 0.602
NCI-H2342; first compound 0.01581 µM
  relative viability: 0.627
NCI-H2342; first compound 0.05 µM
  relative viability: 0.486
NCI-H2342; first compound 0.1581 µM
  relative viability: 0.599
NCI-H2342; first compound 0.5 µM
  relative viability: 0.624
NCI-H647; first compound 0.005 µM
  relative viability: 0.536
NCI-H647; first compound 0.01581 µM
  relative viability: 0.488
NCI-H647; first compound 0.05 µM
  relative viability: 0.651
NCI-H647; first compound 0.1581 µM
  relative viability: 0.323
NCI-H647; first compound 0.5 µM
  relative viability: 0.445
SK-LU-1; first compound 0.005 µM
  relative viability: 0.552
SK-LU-1; first compound 0.01581 µM
  relative viability: 0.608
SK-LU-1; first compound 0.05 µM
  relative viability: 0.501
SK-LU-1; first compound 0.1581 µM
  relative viability: 0.463
SK-LU-1; first compound 0.5 µM
  relative viability: 0.513
